From patent publication US6642217B2, “Triterpenes having human antifungal and antiyeast activity” (Naturtek, LLC, priority 2000, dated 2003)

How the values were obtained:
Microsporum canis [1] = assay: Agar dilution method, growth on Sabouraud dextrose agar slants; type: cell-based; parameters: key: +++: Maximum Fungal Growth; ++: Moderate Fungal Growth; +: Minimum Fungal Growth; +/−: Very little Fungal Growth; −: No Fungal Growth; conditions: 12th day after inoculation
Method: (§1) Agar dilution method. Sabouraud Dextrose Agar (Difco Laboratories, Michigan) was prepared according to the manufacturer's instructions. Five ml was dispensed in a 100×25 mm tube and autoclaved. To each tube containing 5.0 ml of liquid agar at 45° C., 0.5, 0.25, 0.12, or 0.063 ml of a DMSO solution of the compound was added to give the final indicated concentrations in Table 2. The agar was then solidified in slants. Fungal cultures were inoculated. The slants were incubated at 25-28° C. for 10-12 days, and the growth of the fungus was recorded every second day.

Microsporum gypseum = assay: as above; type: cell-based; parameters: key: +++: Maximum Fungal Growth; ++: Moderate Fungal Growth; +: Minimum Fungal Growth; +/−: Very little Fungal Growth; −: No Fungal Growth; conditions: 12th day after inoculation
Method: as §1

Pityrosporum ovale [2] = assay: as above; type: cell-based; parameters: key: +++: Maximum Fungal Growth; ++: Moderate Fungal Growth; +: Minimum Fungal Growth; +/−: Very little Fungal Growth; −: No Fungal Growth; conditions: 12th day after inoculation
Method: as §1

Trichophyton rubrum [3] = assay: as above; type: cell-based; parameters: key: +++: Maximum Fungal Growth; ++: Moderate Fungal Growth; +: Minimum Fungal Growth; +/−: Very little Fungal Growth; −: No Fungal Growth; conditions: 12th day after inoculation
Method: as §1

Microsporum audouinni [4] = assay: as above; type: cell-based, Microsporum audouinii; parameters: key: +++: Maximum Fungal Growth; ++: Moderate Fungal Growth; +: Minimum Fungal Growth; +/−: Very little Fungal Growth; −: No Fungal Growth; conditions: 12th day after inoculation
Method: as §1

Trichophyton tonsuran = assay: as above; type: cell-based, Trichophyton tonsurans; parameters: key: +++: Maximum Fungal Growth; ++: Moderate Fungal Growth; +: Minimum Fungal Growth; +/−: Very little Fungal Growth; −: No Fungal Growth; conditions: 12th day after inoculation
Method: as §1

[5] = test system: Trichophyton mentagrophyte; assay: as above; type: cell-based, Trichophyton mentagrophytes; parameters: key to Fungal growth: +++: Maximum Fungal Growth; ++: Moderate Fungal Growth; +: Minimum Fungal Growth; +/−: Very little Fungal Growth; −: No Fungal Growth; conditions: 12th day after inoculation
Method: as §1

Epidermophyton floccosum [6] = assay: as above; type: cell-based; parameters: key to Fungal growth: +++: Maximum Fungal Growth; ++: Moderate Fungal Growth; +: Minimum Fungal Growth; +/−: Very little Fungal Growth; −: No Fungal Growth; conditions: 12th day after inoculation
Method: as §1

Microsporum audouinni [7] = assay: Direct addition method, solid compound in Sabouraud dextrose agar; type: cell-based, Microsporum audouinii; parameters: key to Fungal growth: +++: Maximum Fungal Growth; ++: Moderate Fungal Growth; +: Minimum Fungal Growth; +/−: Very little Fungal Growth; −: No Fungal Growth; conditions: for Fungal growth: 4 mg/mL of agar, 12th day after inoculation
Method: (§2) Direct addition method. Sabouraud dextrose agar was prepared according to the manufacturer's instructions and 5.0 ml was dispensed in each 100×25 mm tube. The tubes were autoclaved. To each tube containing 5.0 ml of liquid agar at 45° C., 20 mg of solid test compound was added, to give a final concentration of 4 mg/ml. The agar was solidified in slants. The fungal cultures were then innoculated. The slants were incubated at 25-28 ° C. for 10-12 days, and the growth of the fungus was recorded every second day. The results in Table 2 indicate growth at the 12th day of inoculation.

Pityrosporum ovale [8] = assay: Direct addition into the Pityrosporum agar; type: cell-based; parameters: key to Pityrosporum ovale growth: +++: Maximum Growth; ++: Moderate Growth; +: Minimum Growth; +/−: Very Little Growth; −: No Growth; conditions: for Growth inhibition of Pityrosporum ovale by the direct addition method: 4 mg/ml; for Pityrosporum ovale growth: 4 mg/ml in the agar, 18 hours after inoculation
Method: as §2, with “The slants were incubated at 25-28 ° C. for 10-12 days, and the growth of the fungus was recorded every second day. The results in Table 2 indicate growth at the 12th day of inoculation.” left out

P. ovale = assay: Summary of anti-fungal assays (direct addition, agar dilution, liquid culture); type: cell-based, Pityrosporum ovale; conditions: stated in words (Tables 1a/1b, text to Table 5)
Method: (§3) This example summarizes the results of various other assays of the anti-fungal activity of betulin derivatives. Table 5 summarizes results using different assay methods—direct addition, agar dilution, and direct addition to liquid culture, as disclosed in the previous three Examples. In some cases, only one type of assay was done with a compound. In other cases, the compound was tested by multiple assays.

Microsporum audouinii = assay: as above; type: cell-based; conditions: stated in words (Tables 1a/1b, text to Table 5)
Method: as §3

Epidermophyton floccosum [9] = assay: Direct addition method, solid compound in Sabouraud dextrose agar; type: cell-based; parameters: key: +++: Maximum Fungal Growth; ++: Moderate Fungal Growth; +: Minimum Fungal Growth; +/−: Very little Fungal Growth; −: No Fungal Growth; conditions: 4 mg/mL of agar; 12th day after inoculation
Method: as §2

Microsporum canis [10] = assay: as above; type: cell-based; parameters: key: +++: Maximum Fungal Growth; ++: Moderate Fungal Growth; +: Minimum Fungal Growth; +/−: Very little Fungal Growth; −: No Fungal Growth; conditions: 4 mg/mL of agar; 12th day after inoculation
Method: as §2

Pityrosporum ovale [11] = assay: as above; type: cell-based; parameters: key: +++: Maximum Fungal Growth; ++: Moderate Fungal Growth; +: Minimum Fungal Growth; +/−: Very little Fungal Growth; −: No Fungal Growth; conditions: 4 mg/mL of agar; 12th day after inoculation
Method: as §2

Trichophyton rubrum [12] = assay: as above; type: cell-based; parameters: key: +++: Maximum Fungal Growth; ++: Moderate Fungal Growth; +: Minimum Fungal Growth; +/−: Very little Fungal Growth; −: No Fungal Growth; conditions: 4 mg/mL of agar; 12th day after inoculation
Method: as §2

Epidermophyton floccosum [13] = assay: Summary of anti-fungal assays (direct addition, agar dilution, liquid culture); type: cell-based; conditions: stated in words (Tables 1a/1b, text to Table 5)
Method: as §3

[14] = test system: Trichophyton mentagrophytes; assay: as above; type: cell-based; conditions: stated in words (Tables 1a/1b, text to Table 5)
Method: as §3

Trichophyton rubrum [15] = assay: as above; type: cell-based; conditions: stated in words (Tables 1a/1b, text to Table 5)
Method: as §3

Microsporum canis [16] = assay: Direct addition method, solid compound in Sabouraud dextrose agar; type: cell-based; conditions: against Microsporum canis
Method: as §2

Trichophyton tonsurans = assay: Summary of anti-fungal assays (direct addition, agar dilution, liquid culture); type: cell-based; conditions: stated in words (Tables 1a/1b, text to Table 5)
Method: as §3

C=C(C)[C@@H]1CCC2(CO)CC[C@@]3(C)C(CCC4[C@@]5(C)C=C(O)C(=O)C(C)(C)C5CC[C@]43C)C12 (stereo partly shown)
167 to 170 °C (dec.): melting point

CC1(C)CCC23CC[C@@]4(C)C(CCC5[C@@]6(C)CC[C@H](O)C(C)(C)C6CC[C@]54C)C2C1OC3 (stereo partly drawn) [Allobetulin, oleanan-3β-ol-28,19-β-ether]
+: Fungal growth (Trichophyton rubrum [3]; 38 μg/ml) | Fungal growth ([5]; 19 μg/ml) | Fungal growth ([5]; 38 μg/ml) | Fungal growth (Epidermophyton floccosum [6]; 19 μg/ml) | Fungal growth (Epidermophyton floccosum [6]; 38 μg/ml) | Fungal growth (Microsporum audouinni [7]) | Fungal growth (Trichophyton rubrum [12])
+/−: Fungal growth (Microsporum audouinni [4]; 9 μg/ml) | Pityrosporum ovale growth (Pityrosporum ovale [8])
+++: Fungal growth (Microsporum canis [1]; 9 μg/ml) | Fungal growth (Microsporum gypseum; 9 μg/ml) | Fungal growth (Pityrosporum ovale [2]; 9 μg/ml) | Fungal growth (Pityrosporum ovale [2]; 19 μg/ml) | Fungal growth (Trichophyton tonsuran; 9 μg/ml)
++: Fungal growth (Microsporum canis [1]; 19 μg/ml) | Fungal growth (Microsporum canis [1]; 38 μg/ml) | Fungal growth (Microsporum gypseum; 19 μg/ml) | Fungal growth (Microsporum gypseum; 38 μg/ml) | Fungal growth (Pityrosporum ovale [2]; 38 μg/ml) | Fungal growth (Trichophyton rubrum [3]; 9 μg/ml) | Fungal growth (Trichophyton rubrum [3]; 19 μg/ml) | Fungal growth (Trichophyton tonsuran; 19 μg/ml) | Fungal growth (Trichophyton tonsuran; 38 μg/ml) | Fungal growth ([5]; 9 μg/ml) | Fungal growth (Epidermophyton floccosum [6]; 9 μg/ml) | Fungal growth (Microsporum canis [10])
Microsporum audouinii: Active against Microsporum audouinii (Microsporum audouinii)
Pityrosporum ovale: Active against Pityrosporum ovale (P. ovale)
inhibited the growth: Growth inhibition of Pityrosporum ovale by the direct addition method (Pityrosporum ovale [8])
−: Fungal growth (Microsporum canis [1]; 75 μg/ml) | Fungal growth (Microsporum gypseum; 75 μg/ml) | Fungal growth (Pityrosporum ovale [2]; 75 μg/ml) | Fungal growth (Trichophyton rubrum [3]; 75 μg/ml) | Fungal growth (Microsporum audouinni [4]; 19 μg/ml) | Fungal growth (Microsporum audouinni [4]; 38 μg/ml) | Fungal growth (Microsporum audouinni [4]; 75 μg/ml) | Fungal growth (Trichophyton tonsuran; 75 μg/ml) | Fungal growth ([5]; 75 μg/ml) | Fungal growth (Epidermophyton floccosum [6]; 75 μg/ml) | Fungal growth (Epidermophyton floccosum [9]) | Fungal growth (Pityrosporum ovale [11])

CC(C)C(N)C(=O)OC1CCC2(C)C(CCC3(C)C2CCC2C4C5OCC4(CCC5(C)C)CCC23C)C1(C)C [Allobetulin-3-L-valine]
Pityrosporum ovale: Active against Pityrosporum ovale (P. ovale)
+: Pityrosporum ovale growth (Pityrosporum ovale [8]) | Fungal growth (Microsporum canis [10]) | Fungal growth (Trichophyton rubrum [12])
against Microsporum audouinii: best anti-fungal or anti-yeast activity by the direct addition method (Microsporum audouinni [7]; against Microsporum audouinii)
inhibited the growth: Growth inhibition of Pityrosporum ovale by the direct addition method (Pityrosporum ovale [8])
−: Fungal growth (Microsporum audouinni [7]) | Fungal growth (Epidermophyton floccosum [9]) | Fungal growth (Pityrosporum ovale [11])
Microsporum audouinii: Active against Microsporum audouinii (Microsporum audouinii)

CC(=O)OC1CC[C@@]2(C)C(CC[C@]3(C)C2CCC2C4C5OC(=O)C4(CCC5(C)C)CC[C@@]23C)C1(C)C (stereo partly drawn) [Allobetulinlactone-3-acetate, oleanan-28,19-β-lactone-3-acetate]
312.5 to 315.4 °C (dec.): melting point

C=C(C)C1CCC2(COC(=O)CC(C)(C)CC(=O)O)CCC3(C)C(CCC4C5(C)CCC(OC(=O)CC(C)(C)CC(=O)O)C(C)(C)C5CCC43C)C12 (stereo not shown) [Betulin-3,28-di(3′,3′-dimethyl)glutarate]
Microsporum audouinii,: Active against Microsporum audouinii (Microsporum audouinii)
against Epidermophyton floccosum: Active against Epidermophyton floccosum (Epidermophyton floccosum [13])
Trichophyton rubrum,: Active against Trichophyton rubrum (Trichophyton rubrum [15])
Trichophyton mentagrophytes,: Active against Trichophyton mentagrophytes [14]

C=C(C)C1CCC2(COC(=O)CCC(=O)O)CC[C@@]3(C)C(CCC4[C@@]5(C)CCC(OC(=O)CCC(=O)O)C(C)(C)C5CC[C@]43C)C12 (stereo partly shown) [Betulin-3,28-disuccinate]
+: Fungal growth (Microsporum canis [1]; 250 μg/ml) | Fungal growth (Microsporum canis [1]; 500 μg/ml) | Fungal growth (Microsporum gypseum; 250 μg/ml) | Fungal growth (Microsporum gypseum; 500 μg/ml) | Fungal growth (Pityrosporum ovale [2]; 1000 μg/ml) | Fungal growth (Trichophyton rubrum [3]; 250 μg/ml) | Fungal growth (Trichophyton rubrum [3]; 500 μg/ml) | Fungal growth (Microsporum audouinni [4]; 125 μg/ml) | Fungal growth (Trichophyton tonsuran; 250 μg/ml) | Fungal growth (Trichophyton tonsuran; 500 μg/ml) | Fungal growth ([5]; 250 μg/ml) | Fungal growth ([5]; 500 μg/ml) | Fungal growth (Epidermophyton floccosum [6]; 250 μg/ml) | Fungal growth (Epidermophyton floccosum [6]; 500 μg/ml) | Fungal growth (Microsporum audouinni [7]) | Pityrosporum ovale growth (Pityrosporum ovale [8]) | Fungal growth (Trichophyton rubrum [12])
+++: Fungal growth (Pityrosporum ovale [2]; 125 μg/ml) | Fungal growth (Pityrosporum ovale [2]; 250 μg/ml) | Fungal growth (Pityrosporum ovale [2]; 500 μg/ml)
Microsporum audouinii,: Active against Microsporum audouinii (Microsporum audouinii; listed as Betulin-3.28-di-succinate)
−: Fungal growth (Microsporum canis [1]; 1000 μg/ml) | Fungal growth (Microsporum gypseum; 1000 μg/ml) | Fungal growth (Trichophyton rubrum [3]; 1000 μg/ml) | Fungal growth (Microsporum audouinni [4]; 250 μg/ml) | Fungal growth (Microsporum audouinni [4]; 500 μg/ml) | Fungal growth (Microsporum audouinni [4]; 1000 μg/ml) | Fungal growth (Trichophyton tonsuran; 1000 μg/ml) | Fungal growth ([5]; 1000 μg/ml) | Fungal growth (Epidermophyton floccosum [6]; 1000 μg/ml) | Fungal growth (Epidermophyton floccosum [9]) | Fungal growth (Microsporum canis [10]) | Fungal growth (Pityrosporum ovale [11])
++: Fungal growth (Microsporum canis [1]; 125 μg/ml) | Fungal growth (Microsporum gypseum; 125 μg/ml) | Fungal growth (Trichophyton rubrum [3]; 125 μg/ml) | Fungal growth (Trichophyton tonsuran; 125 μg/ml) | Fungal growth ([5]; 125 μg/ml) | Fungal growth (Epidermophyton floccosum [6]; 125 μg/ml)
against Microsporum canis: best anti-fungal or anti-yeast activity by the direct addition method (Microsporum canis [16])

C=C(C)C1CCC2(COC(=O)CCCC(=O)O)CCC3(C)C(CCC4C5(C)CCC(O)C(C)(C)C5CCC43C)C12 (stereo not shown) [Betulin-28-glutarate]
Trichophyton rubrum,: Active against Trichophyton rubrum (Trichophyton rubrum [15])
−: Fungal growth (Epidermophyton floccosum [9]) | Fungal growth (Pityrosporum ovale [11])
Pityrosporum ovale,: Active against Pityrosporum ovale (P. ovale)
Trichophyton tonsurans,: Active against Trichophyton tonsurans (Trichophyton tonsurans)
inhibited the growth: Growth inhibition of Pityrosporum ovale by the direct addition method (Pityrosporum ovale [8])
against Epidermophyton floccosum: Active against Epidermophyton floccosum (Epidermophyton floccosum [13]; listed as betulin-28-glutarate)
+/−: Pityrosporum ovale growth (Pityrosporum ovale [8])
+: Fungal growth (Microsporum audouinni [7]) | Fungal growth (Microsporum canis [10]) | Fungal growth (Trichophyton rubrum [12])
Trichophyton mentagrophytes,: Active against Trichophyton mentagrophytes [14]
